In patent publication US10183022B2, “Pharmaceutical composition for treating ulcerative colitis” (EA Pharma Co., Ltd., priority 2014, dated 2019):
“And” between values parts separate entries of the source, which are not always exact repeats. Equal entries are not always repeated.

Legend:
[1] = test system: ulcerative colitis patients in an active stage; experiment: Clinical study, 960 mg orally 3 times a day for 8 weeks: Mayo score, partial Mayo score, response rate, remission rate; format: in vivo, human; set-up: key to Mayo score, Mean / Mayo score, Minimum / Mayo score, Maximum / Mayo score, Upper quartile / Mayo score, Median / Mayo score, Lower quartile: Mayo score = total of 4 subscores (stool, bloody stool, mucosa, global); key to Mayo score, difference in mean between Example 1 and Comparative Example 1: Mayo score points (total of 4 subscores)
Protocol: A tablet comprising 120 mg of the compound of the formula (1) was coated with a film. Thus, a film-coated tablet was prepared (compound of Example 1).
(§1) The compound of Example 1 or the compound of Comparative Example 1 was orally administered after meals 3 times a day. The number of the given tablets was 8 per administration (i.e., the amount of the compound (1) of Example 1 administered was 960 mg per administration). The administration period was 8 weeks. The compounds were administered until the timing after the breakfast on the day before the assessment day at Week 8.
As the subjects, 102 cases (Comparative Example 1: 51 cases, Example 1: 51 cases) were analyzed for assessment items to be described later.
The investigators or sub-investigators assessed subscores (“stool frequency,” “bloody stool,” “mucosal finding,” and “physician's global assessment”) of the Mayo score according to (1) to (4) below. A Mayo score was a total value of four subscore items of “stool frequency,” “bloody stool,” “mucosal finding,” and “physician's global assessment.” Meanwhile, a partial Mayo score was a total value of three subscore items of the Mayo score excluding “mucosal finding.” Note that, for the Mayo score and the partial Mayo score at Week 0, scores obtained at the time of the eligibility determination were used.
A proportion of subjects satisfying the following conditions (a) and (b) (response rate): • (a) the Mayo score was reduced by 30% or more and by 3 points or more in comparison with that at Week 0; and • (b) the subscore for bloody stool was reduced by 1 point or more in comparison with that at Week 0 or was 1 point or less.
Regarding the response rate (proportion of response cases) (Week 8), Example 1 was compared with Comparative Example 1 by setting a logistic regression model using the following adjusting factors as covariates to conduct a superiority test.
• 1. either subjects on whom a 5-ASA preparation (including a SASP preparation) or a corticosteroid preparation has an insufficient effect or who are intolerant to a 5-ASA preparation (including a SASP preparation) or a corticosteroid preparation; and • 2. the Mayo scores (6 points or more but 7 points or less, 8 points or more but 10 points or less) on the eligibility verification day. (1) Main Analysis
Using the response rate at Week 8 as a primary endpoint, a main effect model was set as the main analysis.
A remission rate is a proportion of subjects each having a Mayo score of 2 points or less with the individual subscores of 1 point or less.

[2] = test system: ulcerative colitis patients in an active stage; experiment: Clinical study, 960 mg orally 3 times a day for 8 weeks: adverse events; format: in vivo, human
Protocol: as §1

[3] = 960 mg orally 3 times a day for 8 weeks

For `COC(=O)[C@H](Cc1ccc(-n2c(=O)c3cc(N(C)C)ccc3n(C)c2=O)cc1)NC(=O)c1c(Cl)cccc1Cl` [Example 1, methyl(2S)-2-(2,6-dichlorobenzamide)-3-{4-[6-(dimethylamino)-1-methyl-2,4-dioxo-1,4-dihydroquinazolin-3(2H)-yl]phenyl}propanoate], the “Response rate in comparison with Comparative Example (placebo)” value [1, 3] was “significantly improved”, the Response rate ([1]; 3 months or more but less than 6 months after remission induction therapy started (6/10 cases)) was 60.0% and the Response rate ([1]; 6 months or more after remission induction therapy started (5/11 cases)) was 45.5%. The Response rate ([1]; Mayo score 6 points or more but 7 points or less (15/20 cases)) was 75.0%, the Response rate ([1]; Mayo score 8 points or more but 10 points or less (17/31 cases)) was 54.8% and the “Mayo score, Lower quartile” value ([1]; Week 0) was 7.0. The “Mayo score, Maximum” value ([1]; Week 0) was 10, the “Mayo score, Mean” value ([1]; Week 0) was 7.8±1.2 and 7.8 and the “Mayo score, Median” value ([1]; Week 0) was 8.0. For the same compound, the “Mayo score, Minimum” value ([1]; Week 0) was 6, the “Mayo score, Upper quartile” value ([1]; Week 0) was 9.0 and the “Partial Mayo score, Lower quartile” value ([1]; Week 0) was 5.0. For the same compound, the “Partial Mayo score, Maximum” value ([1]; Week 0) was 8, the “Partial Mayo score, Mean” value ([1]; Week 0) was 5.7±1.1 and 5.7 and the “Partial Mayo score, Median” value ([1]; Week 0) was 6.0. For the same compound, the “Partial Mayo score, Minimum” value ([1]; Week 0) was 4, the “Partial Mayo score, Upper quartile” value ([1]; Week 0) was 6.0 and the “Partial Mayo score, Lower quartile” value ([1]; Week 2) was 3.0. For the same compound, the “Partial Mayo score, Maximum” value ([1]; Week 2) was 8, the “Partial Mayo score, Mean” value ([1]; Week 2) was 4.4±1.7 and 4.4 and the “Partial Mayo score, Median” value ([1]; Week 2) was 5.0. The “Partial Mayo score, Minimum” value ([1]; Week 2) was 0, the “Partial Mayo score, Upper quartile” value ([1]; Week 2) was 6.0 and the “Partial Mayo score, difference in mean between Example 1 and Comparative Example 1” value (shortened to “Partial Mayo score, difference”) ([1]; Week 2) was −0.55. For the same compound, the “Partial Mayo score, Lower quartile” value ([1]; Week 4) was 2.0, the “Partial Mayo score, Maximum” value ([1]; Week 4) was 8 and the “Partial Mayo score, Mean” value ([1]; Week 4) was 3.5±2.0 and 3.5. For the same compound, the “Partial Mayo score, Median” value ([1]; Week 4) was 3.0, the “Partial Mayo score, Minimum” value ([1]; Week 4) was 0 and the “Partial Mayo score, Upper quartile” value ([1]; Week 4) was 5.0. For the same compound, the “Partial Mayo score, difference” value ([1]; Week 4) was −1.16, the “Difference in remission rates, Example 1 vs Comparative Example 1 (placebo)” value ([1]; Week 8) was 19.6% and the “Difference in response rates, Example 1 vs Comparative Example 1 (placebo)” value ([1]; Week 8) was 37.3%. The “Mayo score, Lower quartile” value ([1]; Week 8) was 2.0, the “Mayo score, Maximum” value ([1]; Week 8) was 9 and the “Mayo score, Mean” value ([1]; Week 8) was 4.0±2.4 and 4.0. The “Mayo score, Median” value ([1]; Week 8) was 4.0, the “Mayo score, Minimum” value ([1]; Week 8) was 0 and the “Mayo score, Upper quartile” value ([1]; Week 8) was 5.0. The “Mayo score, difference in mean between Example 1 and Comparative Example 1” value ([1]; Week 8) was −2.14, the “Partial Mayo score, Lower quartile” value ([1]; Week 8) was 2.0 and the “Partial Mayo score, Maximum” value ([1]; Week 8) was 8. For the same compound, the “Partial Mayo score, Mean” value ([1]; Week 8) was 3.1±2.1 and 3.1, the “Partial Mayo score, Median” value ([1]; Week 8) was 3.0 and the “Partial Mayo score, Minimum” value ([1]; Week 8) was 0. The “Partial Mayo score, Upper quartile” value ([1]; Week 8) was 4.0, the “Partial Mayo score, difference” value ([1]; Week 8) was −1.63 and the Remission cases ([1]; Week 8, 51 cases analyzed) was 12. It also gave a Response cases ([1]; Week 8, 51 cases analyzed) of 32, a Remission rate ([1]; Week 8, all subjects) of 23.5% and a Response rate ([1]; Week 8, all subjects) of 62.7%. The “Estimate of odds ratio of Example 1 to Comparative Example 1 (placebo group), response rate” value ([1]; Week 8, logistic regression model) was 5.35, the Remission rate ([1]; body weight 50 kg or more and disease period less than 5 years (7/22 cases)) was 31.8% and the Response rate ([1]; body weight 50 kg or more and disease period less than 5 years (16/22 cases)) was 72.7%. For the same compound, the Response rate ([1]; body weight 50 kg or more but less than 60 kg (9/13 cases)) was 69.2%, the Response rate ([1]; body weight less than 50 kg (5/9 cases)) was 55.6% and the Response rate ([1]; disease for 1 year or more but less than 5 years (13/21 cases)) was 61.9%. The Response rate ([1]; disease for 5 years or more (13/24 cases)) was 54.2%, the Response rate ([1]; disease for less than 1 year (6/6 cases)) was 100.0% and the Response rate ([1]; disease occurring for the first time (3/5 cases)) was 60.0%. It also gave a Response rate ([1]; disease relapsing (29/46 cases)) of 63.0%, a Response rate ([1]; females (13/20 cases)) of 65.0% and a Response rate ([1]; left-sided colitis subjects (19/29 cases)) of 65.5%. For the same compound, the Response rate ([1]; less than 1 month after remission induction therapy started (8/13 cases)) was 61.5%, the Response rate ([1]; males (19/31 cases)) was 61.3% and the Response rate ([1]; most active site at S or Rs and disease period less than 5 years (9/10 cases)) was 90.0%. It also gave a Response rate ([1]; most active site of mucosal inflammation at Ra or Rb (15/28 cases)) of 53.6%, a Response rate ([1]; most active site of mucosal inflammation at S or Rs (17/23 cases)) of 73.9% and a Response rate ([1]; not receiving enema agent or suppository therapy in the active stage this time (21/34 cases)) of 61.8%. For the same compound, the Response rate ([1]; pancolitis subjects (13/22 cases)) was 59.1%, the Response rate ([1]; received enema agent or suppository therapy but terminated due to insufficient effect (11/17 cases)) was 64.7% and the Response rate ([1]; relapsing subjects, disease period less than 5 years (16/22 cases)) was 72.7%. The Response rate ([1]; relapsing subjects, stool frequency 6 times or less per day (25/32 cases)) was 78.1%, the Response rate ([1]; stool frequency 6 times or less per day and disease period less than 5 years (16/20 cases)) was 80.0% and the Response rate ([1]; stool frequency 6 times or less per day before administration (28/37 cases)) was 75.7%. For the same compound, the Response rate ([1]; stool frequency 7 times or more per day before administration (4/14 cases)) was 28.6%, the Response rate ([1]; subjects intolerant to a 5-ASA preparation (2/2 cases)) was 100.0% and the Response rate ([1]; subjects intolerant to a corticosteroid preparation (0/1 case)) was 0.0%. The Response rate ([1]; subjects on whom a 5-ASA preparation had an insufficient effect (28/46 cases)) was 60.9%, the Response rate ([1]; subjects on whom a corticosteroid preparation had an insufficient effect (2/2 cases)) was 100.0% and the “Safety (adverse event analysis)” value [2, 3] was “no problem in safety”. The Severe adverse events ([2]; 8-week study period) was “no severe adverse event occurred” and the “Incidence rate of moderate adverse events” value ([2]; 8-week study period (2/51 cases)) was 3.9%.
